We go through 1 molecule from patent US7648973B2, “2-methylene-1α,25-dihydroxy-19,21-dinorvitamin D3 analogs and uses thereof” (Wisconsin Alumni Research Foundation, priority 2006, dated 2010).

“Also recorded” adds a separate entry of the source.

In assay [1] the test system is 24-hydyroxylase (24Ohase) gene promoter in ROS 17/2.8 (bone) cells. The experiment in a line: In vitro transcription assay (luciferase reporter). Format: cell-based. The following applies: compared with 1α,25-dihydroxyvitamin D3; FIG. 5. How it is done: Transcription activity was measured in ROS 17/2.8 (bone) cells that were stably transfected with a 24-hydyroxylase (24Ohase) gene promoter upstream of a luciferase reporter gene (Arbour et al., 1998). Cells were given a range of doses. Sixteen hours after dosing the cells were harvested and luciferase activities were measured using a luminometer. (RLU=relative luciferase units)
(In general: A reporter such as luciferase makes a cellular process visible.)

Assay [2] in a line: Bone calcium mobilization (serum calcium). Format: in vivo, rat. The following applies: at equimolar quantities or even at 27 times the dose of 1α,25-dihydroxyvitamin D3; ip, 4 consecutive days; FIG. 2. Here is the method: (§1) Male, weanling Sprague-Dawley rats were placed on Diet 11 (0.47% Ca) diet+AEK for one week followed by Diet 11 (0.02% Ca)+AEK for 3 weeks. The rats were then switched to a diet containing 0.47% Ca for one week followed by two weeks on a diet containing 0.02% Ca. Dose administration began during the last week on 0.02% calcium diet. Four consecutive ip doses were given approximately 24 hours apart. Twenty-four hours after the last dose, blood was collected from the severed neck and the concentration of serum calcium determined as a measure of bone calcium mobilization. The first 10 cm of the intestine was also collected for intestinal calcium transport analysis using the everted gut sac method. The everted gut sac assay was carried out as previously described by Martin and Deluca, Am. J. Physiol. 216, 1351 (1969); (DeLuca et al., U.S. Pat. No. 4,188,345), which are incorporated by reference as if fully set forth herein. Serum calcium was determined by atomic absorption spectrophotometry using a Perkin Elmer Model 3110 and by diluting the serum in 0.1% lanthanum chloride.
(§2) The negative control material is prepared by volumetrically measuring ethanol (<5%) and propylene glycol, mixing, and then placing in storage at 2 to 8° C.
(§3) The solution is mixed and then stored at 2 to 8° C. […]

Assay [3] is described as follows: Intestinal calcium transport (everted gut sac). The following applies: compared with 1α,25-dihydroxyvitamin D3; ip, 4 consecutive days; FIG. 3. Format: in vivo, rat. How it is done:
as §1, §2, §3

The subject of another assay is HL-60 cells. The experiment in a line: HL-60 differentiation (nitro blue tetrazolium reduction). The following applies: compared with 1α,25-dihydroxyvitamin D3; FIG. 4. Format: cell-based, human. Here is the method:
The study drugs were dissolved in ethanol and the concentrations determined using UV spectrophotometry. Serial dilutions were prepared so that a range of drug concentrations could be tested without changing the final concentration of ethanol (<0.2%) present in the cell cultures.
Human promyelocytic leukemia (HL60) cells were grown in RPMI-1640 medium containing 10% fetal bovine serum. The cells were incubated at 37° C. in the presence of 5% CO2.
HL60 cells were plated at 1.2×10^5 cells/ml. Eighteen hours after plating, cells in duplicate were treated with drug. Four days later, the cells were harvested and a nitro blue tetrazolium reduction assay was performed (Collins et al., 1979; J. Exp. Med. 149:969-974). The percentage of differentiated cells was determined by counting a total of 200 cells and recording the number that contained intracellular black-blue formazan deposits. Verification of differentiation to monocytic cells was determined by measuring phagocytic activity (data not shown).

Assay [4] addresses T1, full-length recombinant rat vitamin D receptor (Rattus norvegicus, UniProt P13053).
T1 construct: Full-length recombinant rat receptor was expressed in E. coli BL21(DE3) Codon Plus RIL cells; histidine tag (C); made in house; host or cells: E. coli BL21(DE3) Codon Plus RIL
T1 sequence (P13053 1-423): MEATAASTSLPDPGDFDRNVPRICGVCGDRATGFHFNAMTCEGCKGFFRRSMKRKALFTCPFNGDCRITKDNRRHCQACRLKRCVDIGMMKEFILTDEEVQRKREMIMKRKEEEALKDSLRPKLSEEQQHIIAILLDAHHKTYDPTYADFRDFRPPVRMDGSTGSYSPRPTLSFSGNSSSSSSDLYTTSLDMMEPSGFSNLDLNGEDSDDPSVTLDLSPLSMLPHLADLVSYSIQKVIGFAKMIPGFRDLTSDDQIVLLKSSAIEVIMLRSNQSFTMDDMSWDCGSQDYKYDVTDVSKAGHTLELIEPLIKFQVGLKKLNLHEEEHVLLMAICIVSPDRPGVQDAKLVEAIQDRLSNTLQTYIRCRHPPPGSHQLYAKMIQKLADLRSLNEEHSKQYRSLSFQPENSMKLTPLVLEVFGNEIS
In words: Vitamin D receptor binding, competition with [3H]-1,25-(OH)2-D3. The following applies: compared with 1α,25-dihydroxyvitamin D3; FIG. 1. How it is done:
The first system was a nickel affinity resin that utilizes the C-terminal histidine tag on this protein. The protein that was eluted from this resin was further purified using ion exchange chromatography (S-Sepharose Fast Flow). Aliquots of the purified protein were quick frozen in liquid nitrogen and stored at −80° C. until use. For use in binding assays, the protein was diluted in TEDK50 (50 mM Tris, 1.5 mM EDTA, pH 7.4, 5 mM DTT, 150 mM KCl) with 0.1% Chaps detergent. The receptor protein and ligand concentration was optimized such that no more than 20% of the added radiolabeled ligand was bound to the receptor.
The following day, 100 mcl of hydroxylapatite slurry (50%) was added to each tube and mixed at 10-minute intervals for 30 minutes. The hydroxylapaptite was collected by centrifugation and then washed three times with Tris-EDTA buffer (50 mM Tris, 1.5 mM EDTA, pH 7.4) containing 0.5% Titron X-100. After the final wash, the pellets were transferred to scintillation vials containing 4 ml of Biosafe II scintillation cocktail, mixed and placed in a scintillation counter. Total binding was determined from the tubes containing only radiolabeled ligand.

Turning to `C=C1[C@H](O)CC(=C/C=C2\CCC[C@]3(C)[C@@H](CCCCC(C)(C)O)CC[C@@H]23)C[C@H]1O` [TP-62, 2-methylene-1α,25-dihydroxy-19,21-dinorvitamin D3], in assay [1], the “stimulating transcription of a reporter gene stably transfected in Ros17/2.8 (bone) cells” value was “equally active as 1α,25-dihydroxyvitamin D3”. Besides, the bone calcium mobilization entry in assay [2] is “lesser activity than 1α,25-dihydroxyvitamin D3; also recorded: lesser ability to mobilize calcium from bone”. The “intestinal calcium transport activity” value in assay [3] is “greater or at least equal to 1α,25-dihydroxyvitamin D3”. Further, the “differentiation of HL-60 cells” value with HL-60 cells was “more active than 1α,25-dihydroxyvitamin D3”. Also, the “binding to the recombinant vitamin D receptor” value in assay [4] was “comparably active when compared to 1α,25-dihydroxyvitamin D3; also recorded: relatively high binding”.
